Laboratory results: patent US20120270917A1 (The Trustees of the University of Pennsylvania, priority 2009, published 2012)
Counter-ions that a name gives are not always drawn.

Assays:
AM2 (S31N) = AM2 (S31N) (Influenza A virus, UniProt P0DOF5, S31N); type: cell-based
AM2 (V27A) = AM2 (V27A) (Influenza A virus, UniProt P0DOF5, V27A); type: cell-based

| SMILES | AM2 (S31N) % inhibition at 100 uM (AM2 (S31N)) | AM2 (V27A) % inhibition at μM (AM2 (V27A)) [%] | AM2 (S31N) % inhibition at μM (AM2 (S31N)) [%] | further results |
| --- | --- | --- | --- | --- |
| NC(=O)C12CC3CC(CC(C3)C1)C2 [Compound 48] | 48 (7.3%) |  |  |  |
| Cc1nc[nH]c1/C=N/OC12CC3CC(CC(C3)C1)C2 [Compound 43, 5-Methyl-3H-imidazole-4-carbaldehyde O-adamantan-1-yl-oxime] | 43 (10%) |  |  |  |
| Cl.NC1CCC2(CC1)C1CC3CC(C1)CC2C3 (centres unmarked) [Compound S15, (1r, 3r,5r,7r)-spiro[adamantane-2,1′-cyclohexan]-4′-aminium chloride] |  |  |  | V27A % of inhibition by 100 μM for 2 min (AM2 (V27A)): 94.5 ± 0.4% |
| O=C1C2CC3CC1CC(C2)C3=O [Compound 52, 2,6-diadamantone] | 52 (0%) |  |  |  |
| N=C(N)C12CC3CC(CC(C3)C1)C2 [Compound 44, Adamantane amidine hydrochloride] | 44 (31.5%) |  |  |  |
| Cl.Cl.N=C(N)NC(=N)NC12CC3CC(CC(C3)C1)C2 [Compound 41] | 41 (0%) |  |  |  |
| N=C(N)NC12CC3CC(CC(C3)C1)C2 [Compound 39, 1-(adamantyl)guanidine] | 39 (0%) |  |  |  |
| C1NC2CC3CC1CC(C3)C2.Cl [Compound 47, 4-Azatricyclo[4.3.1.1^3,8]undecan hydrochloride] | 47 (8%) |  |  |  |
| Cl.NC1C[C@@H]2C[C@@H]3CC1[C@H](C2)C3 (stereo partly drawn) [Compound S1, (2S,3aS,5R)-octahydro-1H-2,5-methanoinden-7-aminium chloride] |  | 25.5 |  |  |
| NOC12CC3CC(CC(C3)C1)C2 [Compound 42, O-adamantylhydroxylamine] | 42 (15%) |  |  |  |
| CC(N)C12CC3CC(CC(C3)C1)C2 (centres unmarked) [Rimantadine, reference compound] |  |  |  | S31N % of inhibition by 100 μM for 2 min (AM2 (S31N)): 13.3 ± 1.8% |
| NC12CC3CC(C1)CC(O)(C3)C2 [Compound 38] | 38 (20%) |  |  |  |
| NC1(C(F)(F)F)C2CC3CC(C2)CC1C3 (centres unmarked) [Compound S6] |  | 1.5 | 13.7 |  |
| CC1(N)C2CC3CC(C2)CC1C3 (centres unmarked) [Compound S5] |  | 7.2 | 13.8 |  |
| O=C1C2CC3CC(C2)CC1C3 [Compound 50] | 50 (0%) |  |  |  |
| NS(=O)(=O)NC1C2CC3CC(C2)CC1C3 (centres unmarked) [Compound S7] |  |  | 3.8 |  |

| SMILES | AM2 (S31N) % inhibition at 100 uM (AM2 (S31N)) | AM2 (V27A) % inhibition at μM (AM2 (V27A)) [%] | AM2 (S31N) % inhibition at μM (AM2 (S31N)) [%] | further results |
| --- | --- | --- | --- | --- |
| OC1(C(F)(F)F)C2CC3CC(C2)CC1C3 (centres unmarked) [Compound S8] |  | 10.6 | 14.0 |  |
| Cl.NC1C2CC3CC(C2)CC1C3 (centres unmarked) [Compound S14] |  | 0 | 18.2 |  |
| CC(NC(=N)N)C12CC3CC(CC(C3)C1)C2 (centres unmarked) [Compound 40] | 40 (0%) |  |  |  |
| O=[N+]([O-])C12CC3CC(CC(C3)C1)C2 [Compound 54, 1-nitroadamantane] | 54 (24%) |  |  |  |
| Cl.NC12CC3CCC(CC(C3)C1)C2 [Compound S2, tricyclo[4.3.1.13,8]undecan-1-aminium chloride] |  | 13.6 | 23.7 |  |
| Cl.NC12CCC3CC(CC(C3)C1)C2 [Compound S12] |  | 13.3 | 32.8 |  |
| N=C(NO)C12CC3CC(CC(C3)C1)C2 [Compound 46, N-hydroxyadamantanecarboximidamide] | 46 (0%) |  |  |  |
| NC12CC3CC(CC(C3)C1)C2 [Amantadine, reference compound] |  |  |  | S31N % of inhibition by 100 μM for 2 min (AM2 (S31N)): 34.7 ± 1.6% |
| OC1(C(F)(F)F)C2CC3CC(C2)CC1C3 (centres unmarked) [Compound 53, 2-trifluoromethyl-2-adamantol] | 53 (14%) |  |  |  |
| O=[N+]([O-])C12CC3CC(CC(C3)C1)C2 [Compound S9] |  | 19.9 | 24.0 |  |
| CC1(O)C2CC3CC(C2)CC1C3 (centres unmarked) [Compound S4] |  | 10.9 | 10.6 |  |
| O=C1C2CC3CC(C2)CC1C3 [Compound S13] |  | 0 | 0 |  |
| O=[N+]([O-])C1C2CC3CC(C2)CC1C3 (centres unmarked) [Compound S3] |  | 7.4 | 12.4 |  |
| NC1CSC2(SC1)C1CC3CC(C1)CC2C3 (centres unmarked) [Compound 45] | 45 (0%) |  |  |  |
| O=CC12CC3CC(CC(C3)C1)C2 [Compound 49, 1-adamantanecarboaldehyde] | 49 (11%) |  |  |  |
